Laboratory results: patent US9937151B2, “Carbapenem antibacterials with gram-negative activity” (priority 2010, dated 2018)
≈ marks a conversion by molar mass, not a printed value.

Tested on: G(−) bacterial strains
Experiment: Dilution antimicrobial susceptibility tests (MIC, NCCLS agar dilution / broth dilution)
Type: cell-based, Gram-negative organisms
Details: unit assumed
Experimental: The MIC (minimum inhibitory concentration) was determined by the NCCLS (National Committee for Clinical Laboratory Standards) methods 2000. Methods for dilution antimicrobial susceptibility testing for bacteria that growth aerobically (M7-A5, vol. 20, No. 2). The agar dilution method for determining antimicrobial susceptibility was carried out using Mueller-Hinton agar. A final inoculum of 10^4 CFU/spot was applied with an inoculation device. Broth dilution tests were performed with 5×10^5 CFU/well in 96 well plates. The susceptibilities of streptococci were determined by Mueller-Hinton agar supplemented with 5% sheep blood. All assays were run with the indicated control strains, available from the ATCC (American Type Culture Collection, Rockville, Md.).
Abbreviations used in Table 1 are defined as follows: Cf-R: Ceftazidime Resistance, Ci-R: Ciprofloxacin Resistance, Gen-R: Gentamycin Resistance, Imp-R: Imipenem Resistance, Mp-R: Meropenem Resistance, Ofx-R: Ofloxacin Resistance, B+: β-lactamase Production, AmpC: AmpC-lactamase Hyper production, CBPase: Carbapenemase Production.

[1] = strain #1 Acinetobacter calcoaceticus
[2] = strain #2 Acinetobacter baumannii, Cf-R, Ci-R
[3] = strain #3 Acinetobacter baumannii, Cf-R, Ci-R, Mp-I
[4] = strain #4 Acinetobacter baumannii, Cf-R, Imp-I, CBPase
[5] = strain #7 Enterobacter aerogenes
[6] = strain #8 Enterobacter cloacae, Cf-R, B+
[7] = strain #9 Enterobacter cloacae, Cf-R
[8] = strain #10 Escherichia coli, Ci-R
[9] = strain #11 Escherichia coli, Ci-R, AmpC
[10] = strain #15 Klebsiella pneumoniae
[11] = strain #16 Moraxella catarrhalis
[12] = strain #21 Providencia rettgeri
[13] = strain #22 Salmonella typhimurium
[14] = strain #25 Shigella dysenteriae
[15] = strain #28 Stenotrophomonas maltophilia
[16] = strain #29 Pseudomonas aeruginosa
[17] = strain #30 Pseudomonas aeruginosa
[18] = strain #31 Pseudomonas aeruginosa, Ofx-R
[19] = strain #32 Pseudomonas aeruginosa, Cf-R
[20] = strain #33 Pseudomonas aeruginosa, Ci-R
[21] = strain #34 Pseudomonas aeruginosa, Gen-R
[22] = strain #35 Pseudomonas aeruginosa, Ip-R
[23] = strain #36 Pseudomonas aeruginosa, Cf-R, Ci-R, Mp-R

SMILES	MIC [1]	MIC [2]	MIC [3]	MIC [4]	MIC (strain #5 Citrobacter diversus)	MIC (strain #6 Citrobacter freundii)	MIC [5]	MIC [6]	MIC [7]	MIC [8]	MIC [9]	MIC (strain #12 Escherichia coli)	MIC (strain #13 Escherichia coli)	MIC (strain #14 Klebsiella oxytoca)	MIC [10]	MIC [11]	MIC (strain #17 Morganella Morganii)	MIC (strain #18 Morganella Morganii)	MIC (strain #19 Proteus vulgaris)	MIC (strain #20 Proteus mirabilis)	other results
C[C@@H](O)C1C(=O)N2C(C(=O)O)=C(CN3CC[C@H](NCC(N)=O)C3)[C@H](C)C12 (stereo partly drawn) [Compound 83]	2 µg/mL (≈ 5.46 µM)	4 µg/mL (≈ 10.9 µM)	8 µg/mL (≈ 21.8 µM)	8 µg/mL (≈ 21.8 µM)	0.5 µg/mL (≈ 1.36 µM)	1 µg/mL (≈ 2.73 µM)	4 µg/mL (≈ 10.9 µM)	0.5 µg/mL (≈ 1.36 µM)	1 µg/mL (≈ 2.73 µM)	0.5 µg/mL (≈ 1.36 µM)	0.5 µg/mL (≈ 1.36 µM)	0.5 µg/mL (≈ 1.36 µM)	1 µg/mL (≈ 2.73 µM)	2 µg/mL (≈ 5.46 µM)	1 µg/mL (≈ 2.73 µM)	0.031 µg/mL (≈ 0.0846 µM)	8 µg/mL (≈ 21.8 µM)	8 µg/mL (≈ 21.8 µM)	4 µg/mL (≈ 10.9 µM)	1 µg/mL (≈ 2.73 µM)	MIC [12]: 4 µg/mL (≈ 10.9 µM); MIC [13]: 1 µg/mL (≈ 2.73 µM); MIC (strain #23 Serratia marcescens): 2 µg/mL (≈ 5.46 µM); MIC (strain #24 Serratia marcescens): 2 µg/mL (≈ 5.46 µM); MIC [14]: 1 µg/mL (≈ 2.73 µM); MIC (strain #26 Shigella sonnei): 1 µg/mL (≈ 2.73 µM); MIC (strain #27 Shigella flexneri): 0.5 µg/mL (≈ 1.36 µM); MIC [15]: 1 µg/mL (≈ 2.73 µM); MIC [16]: 16 µg/mL (≈ 43.7 µM); MIC [17]: 16 µg/mL (≈ 43.7 µM); MIC [18]: 8 µg/mL (≈ 21.8 µM); MIC [19]: 16 µg/mL (≈ 43.7 µM); MIC [20]: 16 µg/mL (≈ 43.7 µM); MIC [21]: 32 µg/mL (≈ 87.3 µM); MIC [22]: 32 µg/mL (≈ 87.3 µM); MIC [23]: > 32 µg/mL
C[C@@H](O)C1C(=O)N2C(C(=O)O)=C(CN3CC[C@H](NC=N)C3)[C@H](C)C12 (stereo partly drawn) [Compound 84]	0.25 µg/mL (≈ 0.743 µM)	0.5 µg/mL (≈ 1.49 µM)	1 µg/mL (≈ 2.97 µM)	1 µg/mL (≈ 2.97 µM)	0.25 µg/mL (≈ 0.743 µM)	0.5 µg/mL (≈ 1.49 µM)	1 µg/mL (≈ 2.97 µM)	0.25 µg/mL (≈ 0.743 µM)	0.5 µg/mL (≈ 1.49 µM)	0.25 µg/mL (≈ 0.743 µM)	0.25 µg/mL (≈ 0.743 µM)	0.25 µg/mL (≈ 0.743 µM)	0.5 µg/mL (≈ 1.49 µM)	0.5 µg/mL (≈ 1.49 µM)	0.5 µg/mL (≈ 1.49 µM)	≤ 0.008 µg/mL	4 µg/mL (≈ 11.9 µM)	2 µg/mL (≈ 5.95 µM)	1 µg/mL (≈ 2.97 µM)	0.5 µg/mL (≈ 1.49 µM)	MIC [12]: 2 µg/mL (≈ 5.95 µM); MIC [13]: 0.5 µg/mL (≈ 1.49 µM); MIC (strain #23 Serratia marcescens): 1 µg/mL (≈ 2.97 µM); MIC (strain #24 Serratia marcescens): 1 µg/mL (≈ 2.97 µM); MIC [14]: 0.5 µg/mL (≈ 1.49 µM); MIC (strain #26 Shigella sonnei): 0.5 µg/mL (≈ 1.49 µM); MIC (strain #27 Shigella flexneri): 0.25 µg/mL (≈ 0.743 µM); MIC [15]: 0.25 µg/mL (≈ 0.743 µM); MIC [16]: 2 µg/mL (≈ 5.95 µM); MIC [17]: 2 µg/mL (≈ 5.95 µM); MIC [18]: 0.5 µg/mL (≈ 1.49 µM); MIC [19]: 2 µg/mL (≈ 5.95 µM); MIC [20]: 2 µg/mL (≈ 5.95 µM); MIC [21]: 2 µg/mL (≈ 5.95 µM); MIC [22]: 4 µg/mL (≈ 11.9 µM); MIC [23]: 16 µg/mL (≈ 47.6 µM)
C[C@@H](O)C1C(=O)N2C(C(=O)O)=C(CN3CC(NC(=N)N)C3)[C@H](C)C12 (stereo partly drawn) [Compound 89]	0.13 µg/mL (≈ 0.385 µM)	1 µg/mL (≈ 2.96 µM)	1 µg/mL (≈ 2.96 µM)	0.5 µg/mL (≈ 1.48 µM)	0.13 µg/mL (≈ 0.385 µM)	0.25 µg/mL (≈ 0.741 µM)	1 µg/mL (≈ 2.96 µM)	0.13 µg/mL (≈ 0.385 µM)	0.25 µg/mL (≈ 0.741 µM)	0.13 µg/mL (≈ 0.385 µM)	0.13 µg/mL (≈ 0.385 µM)	0.13 µg/mL (≈ 0.385 µM)	0.25 µg/mL (≈ 0.741 µM)	0.5 µg/mL (≈ 1.48 µM)	0.25 µg/mL (≈ 0.741 µM)	≤ 0.008 µg/mL	2 µg/mL (≈ 5.93 µM)	2 µg/mL (≈ 5.93 µM)	0.5 µg/mL (≈ 1.48 µM)	0.25 µg/mL (≈ 0.741 µM)	MIC [12]: 1 µg/mL (≈ 2.96 µM); MIC [13]: 0.25 µg/mL (≈ 0.741 µM); MIC (strain #23 Serratia marcescens): 0.5 µg/mL (≈ 1.48 µM); MIC (strain #24 Serratia marcescens): 0.5 µg/mL (≈ 1.48 µM); MIC [14]: 0.25 µg/mL (≈ 0.741 µM); MIC (strain #26 Shigella sonnei): 0.25 µg/mL (≈ 0.741 µM); MIC (strain #27 Shigella flexneri): 0.13 µg/mL (≈ 0.385 µM); MIC [15]: 0.13 µg/mL (≈ 0.385 µM); MIC [16]: 1 µg/mL (≈ 2.96 µM); MIC [17]: 1 µg/mL (≈ 2.96 µM); MIC [18]: 0.5 µg/mL (≈ 1.48 µM); MIC [19]: 1 µg/mL (≈ 2.96 µM); MIC [20]: 1 µg/mL (≈ 2.96 µM); MIC [21]: 1 µg/mL (≈ 2.96 µM); MIC [22]: 4 µg/mL (≈ 11.9 µM); MIC [23]: 8 µg/mL (≈ 23.7 µM)
